Like-named read-outs stand apart in the source and are kept apart here.

Data set [1] concerns the target T1, human thioredoxin reductase (hTrxR) (Homo sapiens, UniProt Q16881).
T1 construct: U of native hTrxR; from tissue; host or cells: human placenta
T1 sequence (Q16881 151-649 limits assumed): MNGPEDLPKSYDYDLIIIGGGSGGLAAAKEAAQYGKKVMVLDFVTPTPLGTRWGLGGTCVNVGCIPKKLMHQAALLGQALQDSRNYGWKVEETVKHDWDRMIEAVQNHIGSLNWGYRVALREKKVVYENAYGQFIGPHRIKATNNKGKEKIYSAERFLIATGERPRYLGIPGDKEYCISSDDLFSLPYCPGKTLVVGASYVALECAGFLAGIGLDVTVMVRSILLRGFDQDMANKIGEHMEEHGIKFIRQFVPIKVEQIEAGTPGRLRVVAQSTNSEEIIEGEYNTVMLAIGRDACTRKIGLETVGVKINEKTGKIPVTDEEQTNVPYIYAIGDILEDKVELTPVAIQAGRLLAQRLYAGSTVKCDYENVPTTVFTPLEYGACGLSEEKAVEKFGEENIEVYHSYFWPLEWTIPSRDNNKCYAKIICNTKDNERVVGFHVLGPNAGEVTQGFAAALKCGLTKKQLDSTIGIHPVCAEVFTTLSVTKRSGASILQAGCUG
Put plainly: Kinetic parameters of substrates with native hTrxR (placenta). It counts as biochemical. The settings on record: substrate of native hTrxR (placenta), 25° C., buffer A pH 7.25, 0.2 mM NADPH. The procedure: The human thioredoxin reductase (hTrxR) is purified from placenta as specified in J. E. Oblong et al., Biochemistry, 1993, 32, 7271-7277.
The enzyme is added to a reaction mixture comprising 100 mM potassium phosphate, 2 mM EDTA, pH 7.4 and 3 mM DTNB; after the addition of 200 μM NADPH, the increase in the absorbence is measured at 412 nm and at 25° C. Using the DTNB test, one TrxR unit is defined as the NADPH-dependent production of […] of 5-thio-2-nitrobenzoate (ε412 nm=13.6 mM^−1.cm^−1). The TrxR concentrations are determined by measuring subunits containing FAD at 450 nm (ε=11.3 mM^−1.cm^−1).

The target in data set [2] is T2, trypanothione reductase from Trypanosoma cruzi (TcTR) (Trypanosoma cruzi, UniProt P28593). Put plainly: Kinetic parameters of substrates with recombinant trypanothione reductase.
Procedure: The TcTR concentration is determined by measuring the number of subunits containing FAD at 461 nm (ε=11.3 mM^−1×cm^−1); the enzymatic activity is tested as specified in (28). One TR unit corresponds to 1 μmol of T(S)2 reduced per minute at 25° C. in a buffer A (20 mM Hepes, pH 7.25 containing 1 mM EDTA and 0.15 M KCl).
The enzyme stock solutions used for the kinetic determinations are pure (verification in SDS-PAGE) and have a specific activity of 137 U/mg in the T(S)2 reduction test performed in the presence of 500 μM NADPH and 518 μM T(S)2 in a buffer A.
All the kinetic studies are carried out in the same buffer at 25° C., in the presence of 200 μM of NADPH.
All the tests were carried out at 25° C. in 20 mM HEPES, 1 Mm EDTA, 150 mM KCl, at pH 7.25 (buffer A) and in the presence of 0.2 mM NADPH.
In data set [3] the target is T3, thioredoxin reductase from Plasmodium falciparum (PfTrxR) (Plasmodium falciparum, UniProt Q25861).
T3 construct: made in house; host or cells: E. coli SG5 (glutathione reductase deficient)
T3 sequence (Q25861 1-541): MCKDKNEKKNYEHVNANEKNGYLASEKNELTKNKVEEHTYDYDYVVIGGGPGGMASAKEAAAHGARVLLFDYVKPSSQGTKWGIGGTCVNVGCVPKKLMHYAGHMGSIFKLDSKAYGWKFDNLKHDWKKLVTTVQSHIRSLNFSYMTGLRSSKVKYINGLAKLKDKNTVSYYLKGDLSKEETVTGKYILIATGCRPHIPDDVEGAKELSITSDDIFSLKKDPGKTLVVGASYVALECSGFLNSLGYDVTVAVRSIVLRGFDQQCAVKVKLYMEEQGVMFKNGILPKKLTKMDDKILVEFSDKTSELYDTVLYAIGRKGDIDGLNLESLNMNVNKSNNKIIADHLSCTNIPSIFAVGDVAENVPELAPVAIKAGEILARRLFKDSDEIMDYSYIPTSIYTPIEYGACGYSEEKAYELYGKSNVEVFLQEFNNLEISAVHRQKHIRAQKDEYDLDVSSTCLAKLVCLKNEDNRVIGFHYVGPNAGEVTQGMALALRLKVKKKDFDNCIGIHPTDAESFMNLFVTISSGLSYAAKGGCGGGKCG
Briefly: Kinetic parameters of substrates with recombinant PfTrxR. Format: biochemical. The note with it: substrate of recombinant PfTrxR; 25° C., buffer A pH 7.25, 0.2 mM NADPH. As for the experimental part:
[…] Using the DTNB test, one TrxR unit is defined as the NADPH-dependent production of […] of 5-thio-2-nitrobenzoate (ε412 nm=13.6 mM^−1.cm^−1). The TrxR concentrations are determined by measuring subunits containing FAD at 450 nm (ε=11.3 mM^−1.cm^−1).

Data set [4] deals with T1, human thioredoxin reductase (hTrxR). The settings on record: substrate of native hTrxR (placenta), cited from earlier work; for Km: references [29], [38].
The target in data set [5] is T3, thioredoxin reductase from Plasmodium falciparum (PfTrxR). The note with it: cited from earlier work.
Data set [6] concerns the target T2, trypanothione reductase from Trypanosoma cruzi (TcTR). On the set-up: made in house; host or cells: Escherichia coli SG5 carrying pIBITczTR. The settings on record: cited from earlier work.
The target in data set [7] is T4, Native hTrxR (lung adenocarcinoma cells) (Homo sapiens, UniProt Q16881).
T4 construct: host or cells: human lung adenocarcinoma cells (endogenous enzyme, purified)
T4 sequence (Q16881 151-649 limits assumed): T1 sequence (Q16881 151-649 limits assumed)
The note with it: substrate of native hTrxR (lung adenocarcinoma cells); reference [22]; cited from earlier work.

The mark [8] stands for this setting: substrate of recombinant PfTrxR, reference [26].
The mark [9] stands for this setting: substrate of recombinant TcTR, reference [1].

T2 sequence (P28593 whole entry): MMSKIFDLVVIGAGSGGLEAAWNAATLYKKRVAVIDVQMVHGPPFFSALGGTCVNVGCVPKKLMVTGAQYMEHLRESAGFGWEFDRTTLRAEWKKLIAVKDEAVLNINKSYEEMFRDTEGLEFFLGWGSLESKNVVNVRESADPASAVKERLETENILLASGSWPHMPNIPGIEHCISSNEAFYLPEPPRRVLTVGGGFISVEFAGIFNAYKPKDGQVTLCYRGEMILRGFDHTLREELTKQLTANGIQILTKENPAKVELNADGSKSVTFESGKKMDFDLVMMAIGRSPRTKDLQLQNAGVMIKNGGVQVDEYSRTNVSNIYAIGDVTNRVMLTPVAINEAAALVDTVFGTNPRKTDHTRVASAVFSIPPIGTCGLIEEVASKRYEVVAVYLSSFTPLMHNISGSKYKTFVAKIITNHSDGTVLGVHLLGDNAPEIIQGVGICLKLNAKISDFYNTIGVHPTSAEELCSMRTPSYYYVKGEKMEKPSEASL

For `CN(C)CCCNC(=O)c1cc(SSc2ccc([N+](=O)[O-])c(C(=O)NCCCN(C)C)c2)ccc1[N+](=O)[O-]` [Compound 1], in data set [1], the Km stood at 7 µM. The “reduction of Km compared with trypanothione disulphide” value in data set [2] (substrate for TR) is reported as 30%.
`CN1CCN(C(=O)c2cc(SSc3ccc([N+](=O)[O-])c(C(=O)N4CCN(C)CC4)c3)ccc2[N+](=O)[O-])CC1` [Compound 3]: the figures for the Kcat in data set [1] and in data set [3] were 38 s⁻¹ and 6 s⁻¹, respectively. Further, the Km in data set [1] (read-out: Km) was found to be 10 µM. Moreover, the “suitable as substrate (words spread over the Km, Kcat and Kcat/Km cells)” value in data set [2] (recombinant TcTR, 25° C., buffer A, 0.2 mM NADPH) is listed as “Not”.
Consider `O=C(O)c1cc(SSc2ccc([N+](=O)[O-])c(C(=O)O)c2)ccc1[N+](=O)[O-]` [DTNB, 5,5′-dithiobis(2-nitrobenzoic) acid], for which the Kcat in data set [4] (reference [38]) was 67 s⁻¹; in data set [5] (setting [8]), 7 s⁻¹. The Km in data set [4] was 400 µM; in data set [5] (substrate of PfTrxR, stated in text), roughly 1000 µM; in data set [5] (setting [8]), 1090 µM. In data set [6] (recombinant TcTR, reference [13]), the “suitable as substrate (words spread over the Km, Kcat and Kcat/Km cells)” value is “Not”.
For `N[C@@H](CCC(=O)N[C@H]1CSSC[C@H](NC(=O)CC[C@H](N)C(=O)O)C(=O)NCC(=O)NCCCNCCCCNC(=O)CNC1=O)C(=O)O` [TS2, oxidized N^1, N^8-bis(glutathionyl)-spermidine], in data set [6] (setting [9]), the Kcat was 240 s⁻¹ and the Km is 45 µM.
“E. coli Trx: thioredoxin (Trx) of E. coli, substrate of thioredoxin reductase”: the Kcat is 5.6 s⁻¹ in data set [7] and greater than 5 s⁻¹ in data set [5] (setting [8]). In addition, the Km in data set [7] is 34 µM; in data set [4], 20 µM; in data set [5] (setting [8]) it was 66 µM.

What is called Km is the substrate concentration at which the rate is half of its maximum.

The record behind these values is patent US20030175848A1, “Substituted dithiobisnitrobenzenes and their applications” (Institut Pasteur De Lille, priority 1998, published 2003).
